Measured values: PMC12737022, “Evaluations of Sex Differences in Dosimetry in Rats Following Perfluorohexanesulfonamide (PFHxSA) Oral Exposure” (Toxics, 2025)
Values joined by “and” are separate entries in the source; they are usually repeats but may differ in a detail not shown here. Identical values can stand only once. Like-named read-outs stand apart in the source and are kept apart here.

Tests used:
[1] = Ultracentrifugation plasma protein binding assay, rat plasma; format: in vitro ADME; conditions: for fraction unbound at 1 h, 10 µM: both sexes, SD
Experimental: Human and rat plasma were evaluated for plasma protein binding of PFHxSA and PFHxS using ultracentrifugation. Data generated in human plasma were obtained from an earlier study; for this study, data were generated in rat plasma following the same protocol as described by Smeltz et al.. SD rat plasma (pooled, mixed sex) was obtained from a commercial vendor (BioIVT, Westbury, NY, USA). Briefly, PFHxSA and PFHxS were added to the plasma to achieve a final assay concentration of 10 µM. Following a 1 h 37 °C incubation, 1 mL aliquots from each plasma solution were drawn in triplicate and transferred to polycarbonate ultracentrifuge tubes. These samples underwent ultracentrifugation (Beckman OptimaMax; Beckman Coulter Inc., Indianapolis, IN, USA) at 850,000× g for 4 h at 37 °C; after completion, the aqueous fraction (AF) was collected by transferring the supernatant to a new tube. Two sets of samples of the original PFAS-spiked whole plasma were also collected after a 1 h or a 5 h incubation at 37 °C. All samples were combined with 3 volumes of ice-cold ACN containing relevant internal standard, vigorously mixed, then centrifuged at 12,000× g for 10 min at 4 °C. Supernatants were collected and then stored at <−70 °C until analysis.
Targeted, quantitative analysis of in vitro hepatocyte metabolic stability and plasma protein binding assay samples was conducted on a Waters (Milford, MA, USA) Xevo-TQS micro ultra-high-performance liquid chromatography tandem mass spectrometry system (UPLC-MS/MS), modified with a PFAS analysis kit. Samples were analyzed in negative ion mode with UniSpray ionization. Samples were analyzed in triplicate, with a reference compound included to evaluate assay performance. A CORTECS T3 column (Waters; 3 mm × 100 mm, 2.7 µm) was used for chromatographic separation with a flow rate of 0.6 mL/min and a temperature of 55 °C. Gradient elution was used with mobile phase A (95:5 H2O/ACN) and mobile phase B (95:5 ACN/H2O), each with 2.5 mM of ammonium acetate added. More details are provided in Smeltz et al..
(§1) Intrinsic hepatic clearance (Clint) and fraction unbound in plasma (fup) were calculated from the experimental point estimate data as described in Dobreniecki et al.. Steady-state concentrations (Css) were derived based on zero-order uptake of an assumed daily dose from the gut (assuming 100% intestinal bioavailability) but considering hepatic clearance and non-metabolic renal clearance. Renal clearance was calculated using the glomerular filtration rate (a species-dependent constant) and the fraction unbound in blood (fub), estimated by adjusting the experimental fup for blood/plasma partitioning. The Css calculations, along with underlying species-specific physiologic scalars, are detailed in SI Texts S6 and S7.

rat hepatocytes = experiment: In vitro hepatocyte metabolic stability assay, rat hepatocytes; format: in vitro ADME; conditions: scaled from hepatocyte clearance at 1 μM
Experimental: In vitro evaluations of PFHxSA and PFHxS hepatocyte metabolic stability were performed in rat hepatocytes, as previously described. Also, human hepatocyte clearance data were obtained from an earlier study. Native PFHxSA was obtained from Alpha Chemistry (purity > 98.4%; Holbrook, NY, USA), and PFHxS was obtained from Ark Pharma Scientific Limited (purity > 95%; Cambridge, UK). Pooled, mixed-sex cryopreserved hepatocyte suspensions were employed in a substrate depletion approach, using a final assay concentration of 1 μM. […]
Targeted, quantitative analysis of in vitro hepatocyte metabolic stability and plasma protein binding assay samples was conducted on a Waters (Milford, MA, USA) Xevo-TQS micro ultra-high-performance liquid chromatography tandem mass spectrometry system (UPLC-MS/MS), modified with a PFAS analysis kit. Samples were analyzed in negative ion mode with UniSpray ionization. Samples were analyzed in triplicate, with a reference compound included to evaluate assay performance. […]
Intrinsic hepatic clearance (Clint) and fraction unbound in plasma (fup) were calculated from the experimental point estimate data as described in Dobreniecki et al.. […] Renal clearance was calculated using the glomerular filtration rate (a species-dependent constant) and the fraction unbound in blood (fub), estimated by adjusting the experimental fup for blood/plasma partitioning. […]

[2] = In vitro-in vivo extrapolation (IVIVE) to estimate Css, rat; conditions: for Css (steady-state concentration) / CL renal: Rat; for Css (steady-state concentration): IVIVE-derived, assumes 1 mg/kg/day exposure; for CL renal: non-metabolic, GFR x fub, read-out: Clrenal (renal clearance) (converted)
Experimental: as §1, with “S7. […]” for “S7.”
hepatocytes). In equation (C), the scalar 2000 is used to adjust the assay cell number to be consistent with units of 1 million cells in the Clint equation.
Text S7 In Vitro-In Vivo Extrapolation (IVIVE) Calculations
The pharmacokinetic equation used to estimate expected steady-state concentrations (Css) is based on zero-order uptake of a daily dose from the gut (assuming 100% bioavailability) with both nonmetabolic renal clearance (Clrenal) and hepatic clearance (Clhepatic) (Equation D). The chemical input rate (ko) is the product of the intake dosage and the model body weight; this represents the numerator of Equation D. The Clrenal calculation is shown in the first part of the denominator of Equation D; it is the product of the species-dependent glomerular filtration rate (GFR) and the unbound fraction in blood (fub) of the parent compound. The Clhepatic calculation is shown in the second part of the denominator of Equation D; it is the product of the species-dependent liver blood flow constant, the fub of the parent compound, and the experimentally derived intrinsic clearance (shown in Equation C) divided by the sum of these three values. All values used in Equation D are for first-order conditions of metabolism in the […]

[3] = blood (estimated from fup in plasma), Rat, fup adjusted for blood/plasma partitioning, read-out: fub (fraction unbound in blood)
[4] = Rat plasma, 10 µM, ultracentrifugation, read-out: fup (fraction unbound in plasma)

Row | Structure (SMILES) | fraction unbound at 1 h, 10 µM [1, 3] | fraction unbound at 1 h, 10 µM [1, 4] | Clhep (hepatic clearance) (rat hepatocytes) | Css (steady-state concentration) [2] | CL renal [2] | IVIVE-derived Css higher than in vivo plasma concentration ([2]; rat, 1 mg/kg/day, female and male rat plasma, respectively) | Plasma binding of PFHxS higher than PFHxSA ([1]; rat plasma) | PFHxS Css higher than PFHxSA Css ([2]; rat)
1 | NS(=O)(=O)C(F)(F)C(F)(F)C(F)(F)C(F)(F)C(F)(F)C(F)(F)F [PFHxSA, Perfluorohexanesulfonamide] | 0.0018 | 0.001 | 0.0000449 L/h | 138 µM | 0.00167 mL/min | 6.5–12.1 fold and 6.5–12 fold |  | 
2 | O=S(=O)(O)C(F)(F)C(F)(F)C(F)(F)C(F)(F)C(F)(F)C(F)(F)F [PFHxS, perfluorohexane sulfonic acid] | 0.0014 | 0.0008 | 0 L/h | 243 µM | 0.00167 mL/min |  | 25% | 1.8 fold
